The values below come from patent US9067898B1, “Isothiazole derivatives as GPR120 agonists for the treatment of type II diabetes” (Janssen Pharmaceutica NV, priority 2014, dated 2015).

Assay [1] concerns the target T1, long form of human GPR120 (Homo sapiens, UniProt Q5NUL3).
T1 construct: host or cells: PathHunter CHO-K1 GPR120 β-Arrestin Cell Line
As to the kind of experiment: Human GPR120 DiscoveRx PathHunter Beta-Arrestin assay, Procedure β-arrestin A. It counts as cell-based. Particulars: PathHunter CHO-K1 GPR120 β-Arrestin cell line, 3000 cells per well, read-out: hGPR120 β-arrestin A EC50. From the text: The binding of an agonist (medium/long chain fatty acids or small molecule agonists) to the G-protein-coupled receptor GPR120 activates phospholipase C, leading to release of intracellular Ca^+2 through the generation of inositol 1,4,5-trisphosphate (InsP3 or IP3). GPR120 activation can also trigger intracellular signaling via recruitment of Beta-Arrestin. In the present method, agonist-induced activation of the human GPR120 receptor is monitored through the use of PathHunter CHO-K1 GPR120 Beta-Arrestin Cell Line engineered by DiscoveRx, as detailed below. The cell lines are designed to co-express both the ProLink/Enzyme Donor (PK)-tagged GPCR and the Enzyme […] (EA)-tagged Beta-Arrestin fusion proteins. Upon GPR120 receptor stimulation/activation, the EA-tagged Beta-Arrestin portion is translocated to the tagged receptor, where the two enzyme fragments are brought within close proximity. Under these conditions, these fragments can interact and form an active Beta-gal enzyme complex through Enzyme Fragment Complementation (EFC). This active Beta-gal complex can enzymatically hydrolyse the substrate to produce a detectable light signal; therefore, activation as a function of agonist concentration can be expressed as an EC50 value to determine relative compound activities. This in vitro assay therefore serves to assess compound agonist activity of the GPR120. Procedure β-Arrestin A: In Procedure β-arrestin A, the cell used were PathHunter CHO-K1 GPR120 β-Arrestin Cell Line, expressing the long form of human GPR120 (Genbank accession number NM 181745), with 3000 cells per well. Procedure β-Arrestin B: In Procedure 3-arrestin B the cells used were PathHunter CHO-K1 GPR120S β-Arrestin Cell Line, expressing the short form of the GPR120 receptor (Accession #NM_181745), with 5000 cells/well. Assay Procedure:
The selected CHO-K1 GPR120 β-Arrestin cells were cultured in Ham's F12 media supplemented with 10% fetal bovine serum (FBS), 1% Glutamine, lx p/s, 800 μg/mL G418 and 300 μg/mL Hygromycin B (for selection). Cell stocks were maintained and grown in a sub-confluent state using standard cell culture procedures. The day before the experiment, the cells were harvested with non-enzymatic cell dissociation buffer and re-suspended in complete growth media at the desired concentration. A Corning 384-plate was then seeded with the proper number of cells in a volume of 25 μL, per well. The seeded plates were incubated overnight at 37° C.
On the day of the experiment, the Assay Buffer containing (a) HBSS with Ca^++ and Mg^++, (b) 20 mM HEPES, and (c) 0.1% BSA stabilizer (pH 7.4) was prepared. The growth medium was gently removed from the cell plates and 20 μL of Assay Buffer added to each well. The plate was then incubated at 37° C. for 60 min. Test compounds were serially diluted in Assay Buffer to desired concentrations (more particularly to one or more of the following μM concentrations: 25, 12.5, 6.25, 3.125, 1.5625, 0.78125, 0.390625, 0.1953125, 0.09765625, 0.048828125, 0.024414063, 0.012207031). Five μL of compound dilution was then added to each well and the plate incubated at 37° C. for 90 min. The detection reagents were prepared according to the manufacture's instruction. Twelve μL of the detection reagents were added to each well and the plate incubated at room temperature for 60 min.
The plates were read on an EnVision instrument, using Protocol name: Luminescence, Plate type: 384 Costar, Measurement height: 3 mm, Measurement time: 1 s, Aperture: 384 Plate aperture. The % activity relative to the positive control was calculated using the following equation:
The % Activity values were plotted versus the concentration of test compound and fitted to a sigmoidal dose-response curve with a Hill slope=1 (fixed value) using nonlinear regression with GraphPad Prism 5.0 to calculate the EC50 values. […]

For assay [2], the target named is T2, Human GPR120 short form (Homo sapiens, UniProt Q5NUL3).
T2 construct: expressed in transfected cells
T2 sequence (Q5NUL3 1-361): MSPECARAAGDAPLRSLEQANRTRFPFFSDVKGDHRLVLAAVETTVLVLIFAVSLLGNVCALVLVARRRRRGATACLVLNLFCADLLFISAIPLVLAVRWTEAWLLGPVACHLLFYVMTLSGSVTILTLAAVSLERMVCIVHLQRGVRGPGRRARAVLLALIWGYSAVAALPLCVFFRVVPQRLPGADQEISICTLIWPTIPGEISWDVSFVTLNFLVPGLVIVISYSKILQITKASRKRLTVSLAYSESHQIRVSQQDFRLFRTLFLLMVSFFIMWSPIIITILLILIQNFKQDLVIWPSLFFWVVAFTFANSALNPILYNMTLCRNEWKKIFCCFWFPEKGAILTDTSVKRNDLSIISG
Kind of assay: Human GPR120 calcium flux assay (FLIPR), Procedure Calcium A. It counts as cell-based. The conditions noted are these: HEK-293 cells expressing human GPR120 short form, 2500 cells/well; read-out: GPR120 Ca2+ Assay A EC50. In short, it runs like this: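 HEK293 cells stably expressing the short isoform (NM_001195755.1), 2500/well, starved 1 h, then loaded with Fluo-4 NW plus probenecid (30 min 37 °C, 15 min RT). Compound solutions 0.012–100 μM, 0.2% DMSO final; FLIPR read 300 s after addition. EC50 from Fmax−Fmin fitted to variable-slope sigmoid (Hill <2).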

T1 sequence (Q5NUL3 1-377 isoform Q5NUL3-1): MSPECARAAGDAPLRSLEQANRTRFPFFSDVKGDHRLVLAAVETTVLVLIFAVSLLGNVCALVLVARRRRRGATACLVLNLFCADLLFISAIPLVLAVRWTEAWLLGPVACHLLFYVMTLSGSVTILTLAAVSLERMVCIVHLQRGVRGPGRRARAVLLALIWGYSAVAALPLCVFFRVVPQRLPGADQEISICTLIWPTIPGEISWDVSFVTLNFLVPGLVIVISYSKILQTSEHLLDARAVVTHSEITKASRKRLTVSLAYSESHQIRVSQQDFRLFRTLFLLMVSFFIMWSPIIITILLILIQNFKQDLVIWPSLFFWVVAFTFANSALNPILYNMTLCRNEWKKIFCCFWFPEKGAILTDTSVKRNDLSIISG
T1 sequence (P32121 whole entry partner): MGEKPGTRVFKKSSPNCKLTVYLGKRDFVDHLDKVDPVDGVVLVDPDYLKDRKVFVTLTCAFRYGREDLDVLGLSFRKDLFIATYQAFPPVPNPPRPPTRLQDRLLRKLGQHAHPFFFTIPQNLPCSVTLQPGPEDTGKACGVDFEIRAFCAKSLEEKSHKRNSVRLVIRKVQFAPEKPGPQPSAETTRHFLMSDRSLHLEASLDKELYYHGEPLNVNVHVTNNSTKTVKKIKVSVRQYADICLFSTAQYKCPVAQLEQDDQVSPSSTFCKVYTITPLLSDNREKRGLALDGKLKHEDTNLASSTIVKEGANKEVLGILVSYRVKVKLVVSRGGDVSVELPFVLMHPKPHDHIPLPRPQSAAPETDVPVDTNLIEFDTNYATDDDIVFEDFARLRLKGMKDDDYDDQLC

Consider `COc1ccc(-c2csc(C(F)(F)F)c2COc2c(F)cc(CCC(=O)O)cc2F)cc1` [Cpd 34, 3-(3,5-difluoro-4-((4-(4-methoxyphenyl)-2-(trifluoromethyl)thiophen-3-yl)methoxy)phenyl)propanoic acid], for which the EC50 stood at 208 nM in assay [1] and 65 nM in assay [2].
`COc1ccc(-c2csc(C(F)(F)F)c2COc2c(F)cc(CCCO)cc2F)cc1` [Cpd 45, 3-(3,5-difluoro-4-((4-(4-methoxyphenyl)-2-(trifluoromethyl)thiophen-3-yl)methoxy)phenyl)propan-1-ol]: the EC50 in assay [1] is 123 nM; in assay [2], 154 nM.
Turning to `CCc1ccc(-c2nsc(C(F)(F)F)c2COc2c(F)cc(CC(C)C(=O)O)cc2F)cc1` (stereo not shown) [Cpd 80, 3-(4-[[3-(4-ethylphenyl)-5-(trifluoromethyl)-1,2-thiazol-4-yl]methoxy]-3,5-difluorophenyl)-2-methylpropanoic acid], the EC50 in assay [1] stood at 246 nM; in assay [2], 51 nM.
In the same order, the values of `COc1ccc(-c2nsc(C(F)(F)F)c2COc2c(F)cc(CCC(=O)O)cc2F)cn1` [Cpd 98, 3-(3,5-difluoro-4-((3-(6-methoxypyridin-3-yl)-5-(trifluoromethyl)isothiazol-4-yl)methoxy)phenyl) propanoic acid] are 185 nM and 74 nM.
In the same order, the values of `Cc1c(CCC(=O)O)ccc(OCc2c(-c3ccc(F)cc3)csc2C(F)(F)F)c1C` [Cpd 58, 3-(4-((4-(4-fluorophenyl)-2-(trifluoromethyl)thiophen-3-yl)methoxy)-2,3-dimethylphenyl)propanoic acid] are 639 nM and 293 nM.
On the same counts, the results for `Cc1cc(OCc2c(-c3ccc(Cl)c(F)c3)nsc2C(F)(F)F)c(F)cc1CCC(=O)O` [Cpd 148, 3-(4-((3-(4-chloro-3-fluorophenyl)-5-(trifluoromethyl)isothiazol-4-yl)methoxy)-5-fluoro-2-methylphenyl)propanoic acid] are 242 nM and 165 nM.
On to `COc1ccc(-c2csc(C(F)(F)F)c2COc2c(F)cc(CCCO)cc2F)cn1` [Cpd 38, 3-(3,5-difluoro-4-((4-(6-methoxypyridin-3-yl)-2-(trifluoromethyl)thiophen-3-yl)methoxy)phenyl)propan-1-61], for which the values for the EC50 in assay [1] and in assay [2] were 71 nM and 101 nM, respectively.
In the same order, the values of `Cc1ccc(-c2nsc(C(F)(F)F)c2COc2c(F)cc(CCC(=O)O)cc2F)cc1` [Cpd 115, 3-(3,5-difluoro-4-[[3-(4-methylphenyl)-5-(trifluoromethyl)-1,2-thiazol-4-yl]methoxy]phenyl) propanoic acid] are 70 nM and 104 nM.
In the same order, the values of `CCc1ccc(-c2nsc(C(F)(F)F)c2COc2c(F)c(F)c(CCC(=O)O)c(F)c2F)cc1` [Cpd 118, 3-(4-((3-(4-ethylphenyl)-5-(trifluoromethyl)isothiazol-4-yl)methoxy)-2,3,5,6-tetrafluorophenyl)propanoic acid] are 257 nM and 105 nM.
Regarding `O=C(O)CCc1cc(F)c(OCc2c(-c3ccc(Cl)cc3)csc2C(F)(F)F)c(F)c1` [Cpd 35, 3-(4-((4-(4-chlorophenyl)-2-(trifluoromethyl)thiophen-3-yl)methoxy)-3,5-difluorophenyl)propanoic acid], the EC50 was determined as 270 nM in assay [1] and 70 nM in assay [2].
In the same order, the values of `CCc1ccc(-c2cscc2COc2ccc(CCC(=O)O)c(C)c2C)cc1` [Cpd 41, 3-(4-((4-(4-ethylphenyl)thiophen-3-yl)methoxy)-2,3-dimethylphenyl)propanoic acid] are 711 nM and 142 nM.
As for “3-(4-[[2-(4-chlorophenyl)-5-methyl-4-(trifluoromethyl)thiophen-3-yl]methoxy]-3,5-difluorophenyl)propanoic acid [Cpd 40]”, the concentration giving a half-maximal response (EC50) in assay [1] was determined as 650 nM; in assay [2], 129 nM.
In the case of `Cc1c(CCC(=O)O)ccc(OCc2c(-c3c(F)cc(Cl)cc3F)nsc2C(F)(F)F)c1C` [Cpd 133, 3-(4-((3-(4-chloro-2,6-difluorophenyl)-5-(trifluoromethyl)isothiazol-4-yl)methoxy)-2,3-dimethylphenyl)propanoic acid], the EC50 was 539 nM in assay [1] and 131 nM in assay [2].
On the same counts, the results for `CCc1ccc(-c2nsc(C(F)(F)F)c2COc2c(F)cc(CC(C)CO)cc2F)cc1` (stereo not shown) [Cpd 216, 3-(4-[[3-(4-ethylphenyl)-5-(trifluoromethyl)-1,2-thiazol-4-yl]methoxy]-3,5-difluorophenyl)-2-methylpropan-1-ol] are 466 nM and 674 nM.
In the same order, the values of `CCc1ccc(-c2ccsc2COc2c(F)cc(CCCO)cc2F)cc1` [Cpd 20, 3-(4-[[3-(4-ethylphenyl)thiophen-2-yl]methoxy]-3,5-difluorophenyl)propan-1-ol] are 168 nM and 657 nM.
Regarding `OCCCc1cc(F)c(OCc2c(C3CCCC3)nsc2C(F)(F)F)c(F)c1` [Cpd 141, 3-(4-[[3-cyclopentyl-5-(trifluoromethyl)-1,2-thiazol-4-yl]methoxy]-3,5-difluorophenyl)propan-1-ol], the figures for the EC50 in assay [1] and in assay [2] were 105 nM and 148 nM, respectively.
Consider `O=C(O)CCc1ccc(OCc2csnc2-c2ccc(Cl)cc2)c(F)c1F` [Cpd 189, 3-(4-((3-(4-chlorophenyl)isothiazol-4-yl)methoxy)-2,3-difluorophenyl)propanoic acid], for which the results for the EC50 in assay [1] and in assay [2] were 612 nM and 310 nM, respectively.
On the same counts, the results for `O=C(O)/C=C/c1cc(F)c(OCc2c(-c3ccc(Cl)cc3)nsc2C(F)(F)F)c(F)c1` [Cpd 201, (E)-3-(4-((3-(4-chlorophenyl)-5-(trifluoromethyl)isothiazol-4-yl)methoxy)-3,5-difluorophenyl)acrylic acid] are 341 nM and 453 nM.
On the same counts, the results for `CCc1ccc(-c2nsc(C(F)(F)F)c2COc2c(F)cc(CCC(=O)O)c(F)c2F)cc1` [Cpd 117, 3-(4-((3-(4-ethylphenyl)-5-(trifluoromethyl)isothiazol-4-yl)methoxy)-2,3,5-trifluorophenyl)propanoic acid] are 254 nM and 104 nM.
Take `CCc1ccc(-c2sccc2COc2c(F)cc(CCC(=O)O)cc2F)cc1` [Cpd 52, 3-(4-((2-(4-ethylphenyl)thiophen-3-yl)methoxy)-3,5-difluorophenyl)propanoic acid]: the EC50 in assay [1] was determined as 344 nM; in assay [2], 181 nM.
